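Abbreviation: GI50, concentration required for 50% inhibition of growth. TGI denotes the concentration required for complete inhibition of growth.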
Columns and labels:
Assay in all cases: DTP human tumour cell line panel, 384-well format
SK-OV-3 ovarian = tested on: SK-OV-3 ovarian
SN12C renal = tested on: SN12C renal
NCI-H522 lung = tested on: NCI-H522 lung
SW-620 colon = tested on: SW-620 colon
MOLT-4 leukemia = tested on: MOLT-4 leukemia
HCC-2998 colon = tested on: HCC-2998 colon
SF-295 CNS = tested on: SF-295 CNS
K-562 leukemia = tested on: K-562 leukemia
SK-MEL-28 melanoma = tested on: SK-MEL-28 melanoma
LOX IMVI melanoma = tested on: LOX IMVI melanoma
HCT-116 colon = tested on: HCT-116 colon
NCI/ADR-RES ovarian = tested on: NCI/ADR-RES ovarian
OVCAR-4 ovarian = tested on: OVCAR-4 ovarian
SF-268 CNS = tested on: SF-268 CNS
MDA-MB-468 breast = tested on: MDA-MB-468 breast
HT29 colon = tested on: HT29 colon
HCT-15 colon = tested on: HCT-15 colon
NCI-H226 lung = tested on: NCI-H226 lung
MDA-MB-435 melanoma = tested on: MDA-MB-435 melanoma
UACC-62 melanoma = tested on: UACC-62 melanoma
ACHN renal = tested on: ACHN renal
CAKI-1 renal = tested on: CAKI-1 renal
NCI-H322M lung = tested on: NCI-H322M lung
RPMI-8226 leukemia = tested on: RPMI-8226 leukemia
PC-3 prostate = tested on: PC-3 prostate
TK-10 renal = tested on: TK-10 renal
MALME-3M melanoma = tested on: MALME-3M melanoma
CCRF-CEM leukemia = tested on: CCRF-CEM leukemia
SK-MEL-5 melanoma = tested on: SK-MEL-5 melanoma
A498 renal = tested on: A498 renal
SF-539 CNS = tested on: SF-539 CNS
U251 glioblastoma = tested on: U251 glioblastoma
DU-145 prostate = tested on: DU-145 prostate
EKVX NSCLC = tested on: EKVX NSCLC
IGROV1 ovarian = tested on: IGROV1 ovarian
OVCAR-8 ovarian = tested on: OVCAR-8 ovarian
SNB-19 CNS = tested on: SNB-19 CNS
COLO 205 colon = tested on: COLO 205 colon
HS 578T breast = tested on: HS 578T breast
KM12 colon = tested on: KM12 colon
MCF7 breast = tested on: MCF7 breast
SK-MEL-2 melanoma = tested on: SK-MEL-2 melanoma
M14 melanoma = tested on: M14 melanoma
RXF 393 renal = tested on: RXF 393 renal
SR leukemia = tested on: SR leukemia
HOP-62 NSCLC = tested on: HOP-62 NSCLC
SNB-75 CNS = tested on: SNB-75 CNS

Q: What does the source list for `Cn1c(Nc2ccc(C(F)(F)F)cc2)nc2cc(Oc3ccnc(-c4ncc(C(F)(F)F)[nH]4)c3)ccc21`?
A: GI50 (SK-OV-3 ovarian): 0.0127 µM; TGI (SK-OV-3 ovarian): 12.5 µM; GI50 (SN12C renal): 0.0464 µM; TGI (SN12C renal): 11.8 µM; GI50 (NCI-H522 lung): 0.0556 µM; TGI (NCI-H522 lung): 11 µM; GI50 (SW-620 colon): 0.873 µM; TGI (SW-620 colon): 12.5 µM; GI50 (MOLT-4 leukemia): 0.0553 µM; TGI (MOLT-4 leukemia): 0.197 µM; GI50 (HCC-2998 colon): 0.0883 µM; TGI (HCC-2998 colon): 5.62 µM; GI50 (SF-295 CNS): 0.249 µM; TGI (SF-295 CNS): 5.66 µM; GI50 (K-562 leukemia): 0.63 µM; TGI (K-562 leukemia): 2.13 µM; GI50 (SK-MEL-28 melanoma): 0.046 µM; TGI (SK-MEL-28 melanoma): 0.408 µM; GI50 (LOX IMVI melanoma): 0.0547 µM; TGI (LOX IMVI melanoma): 1.54 µM; GI50 (HCT-116 colon): 0.0625 µM; TGI (HCT-116 colon): 3.55 µM; GI50 (NCI/ADR-RES ovarian): 0.567 µM; TGI (NCI/ADR-RES ovarian): 2.84 µM; GI50 (OVCAR-4 ovarian): 0.454 µM; TGI (OVCAR-4 ovarian): 11.7 µM; GI50 (SF-268 CNS): 0.387 µM; TGI (SF-268 CNS): 13.3 µM; GI50 (MDA-MB-468 breast): 0.0741 µM; TGI (MDA-MB-468 breast): 0.825 µM; GI50 (HT29 colon): 0.396 µM; TGI (HT29 colon): 13.7 µM; GI50 (HCT-15 colon): 0.0537 µM; TGI (HCT-15 colon): 10.3 µM; GI50 (NCI-H226 lung): 1.5 µM; TGI (NCI-H226 lung): 19.2 µM; GI50 (MDA-MB-435 melanoma): 0.0476 µM; TGI (MDA-MB-435 melanoma): 5.88 µM; GI50 (UACC-62 melanoma): 0.027 µM; TGI (UACC-62 melanoma): 0.462 µM; GI50 (ACHN renal): 0.0205 µM; TGI (ACHN renal): 11.3 µM; GI50 (CAKI-1 renal): 15.7 nM; TGI (CAKI-1 renal): 12.4 µM; GI50 (NCI-H322M lung): 0.106 µM; TGI (NCI-H322M lung): 12.6 µM; GI50 (RPMI-8226 leukemia): 0.232 µM; TGI (RPMI-8226 leukemia): 2.09 µM; GI50 (PC-3 prostate): 0.833 µM; TGI (PC-3 prostate): 12.3 µM; GI50 (TK-10 renal): 0.0896 µM; TGI (TK-10 renal): 11.8 µM; GI50 (MALME-3M melanoma): 0.0144 µM; TGI (MALME-3M melanoma): 0.0443 µM; GI50 (CCRF-CEM leukemia): 0.231 µM; TGI (CCRF-CEM leukemia): 1.17 µM; GI50 (SK-MEL-5 melanoma): 0.0704 µM; TGI (SK-MEL-5 melanoma): 0.617 µM; TGI (A498 renal): 12.9 µM; GI50 (SF-539 CNS): 0.346 µM; TGI (SF-539 CNS): 7.74 µM; GI50 (U251 glioblastoma): 0.0979 µM; TGI (U251 glioblastoma): 12.7 µM; GI50 (DU-145 prostate): 0.0352 µM; TGI (DU-145 prostate): 13.6 µM; GI50 (EKVX NSCLC): 0.983 µM; TGI (EKVX NSCLC): 4.91 µM; GI50 (IGROV1 ovarian): 0.041 µM; TGI (IGROV1 ovarian): 11.2 µM; GI50 (OVCAR-8 ovarian): 0.493 µM; TGI (OVCAR-8 ovarian): 10.6 µM; GI50 (SNB-19 CNS): 0.359 µM; TGI (SNB-19 CNS): 19.8 µM; GI50 (COLO 205 colon): 0.122 µM; TGI (COLO 205 colon): 1.42 µM; GI50 (HS 578T breast): 0.0391 µM; TGI (HS 578T breast): 6.25 µM; GI50 (KM12 colon): 0.734 µM; TGI (KM12 colon): 12.5 µM; GI50 (MCF7 breast): 1.59 µM; TGI (MCF7 breast): 6.67 µM; GI50 (SK-MEL-2 melanoma): 0.0238 µM; TGI (SK-MEL-2 melanoma): 0.101 µM; GI50 (M14 melanoma): 0.0184 µM; TGI (M14 melanoma): 0.332 µM; GI50 (RXF 393 renal): 0.0159 µM; TGI (RXF 393 renal): 0.348 µM; GI50 (SR leukemia): 270 nM; TGI (SR leukemia): 2.11 µM; GI50 (HOP-62 NSCLC): 0.608 µM; TGI (HOP-62 NSCLC): 11.4 µM; GI50 (SNB-75 CNS): 0.0711 µM; TGI (SNB-75 CNS): 13 µM

Q: What does the source list for `CN1CC[C@@H](c2c(O)cc(O)c3c(=O)cc(-c4ccc(C(F)(F)F)cc4Cl)oc23)[C@@H]1CO`?
A: GI50 (SK-OV-3 ovarian): 16.3 µM; TGI (SK-OV-3 ovarian): 31.1 µM; GI50 (SN12C renal): 13.7 µM; TGI (SN12C renal): 26.7 µM; GI50 (NCI-H522 lung): 14 µM; TGI (NCI-H522 lung): 27.1 µM; GI50 (SW-620 colon): 17.5 µM; TGI (SW-620 colon): 31.6 µM; GI50 (MOLT-4 leukemia): 12.7 µM; TGI (MOLT-4 leukemia): 25.4 µM; GI50 (HCC-2998 colon): 13.2 µM; TGI (HCC-2998 colon): 26.2 µM; GI50 (SF-295 CNS): 16.7 µM; TGI (SF-295 CNS): 30.8 µM; GI50 (K-562 leukemia): 13.9 µM; TGI (K-562 leukemia): 27.3 µM; GI50 (SK-MEL-28 melanoma): 13.5 µM; TGI (SK-MEL-28 melanoma): 26.4 µM; GI50 (LOX IMVI melanoma): 14 µM; TGI (LOX IMVI melanoma): 27.1 µM; GI50 (HCT-116 colon): 12.4 µM; TGI (HCT-116 colon): 25.4 µM; GI50 (NCI/ADR-RES ovarian): 17.7 µM; TGI (NCI/ADR-RES ovarian): 35.9 µM; GI50 (OVCAR-4 ovarian): 15.4 µM; TGI (OVCAR-4 ovarian): 29.6 µM; GI50 (SF-268 CNS): 15.1 µM; TGI (SF-268 CNS): 28.5 µM; GI50 (MDA-MB-468 breast): 11.8 µM; TGI (MDA-MB-468 breast): 24.1 µM; GI50 (HT29 colon): 17.6 µM; TGI (HT29 colon): 31.8 µM; GI50 (HCT-15 colon): 16.1 µM; TGI (HCT-15 colon): 30 µM; GI50 (NCI-H226 lung): 12.1 µM; TGI (NCI-H226 lung): 26.8 µM; GI50 (MDA-MB-435 melanoma): 20.5 µM; TGI (MDA-MB-435 melanoma): 34.9 µM; GI50 (UACC-62 melanoma): 9.36 µM; TGI (UACC-62 melanoma): 21.7 µM; GI50 (ACHN renal): 12.6 µM; TGI (ACHN renal): 25.7 µM; GI50 (CAKI-1 renal): 4610 nM; TGI (CAKI-1 renal): 13.1 µM; GI50 (NCI-H322M lung): 15.5 µM; TGI (NCI-H322M lung): 29.2 µM; GI50 (RPMI-8226 leukemia): 7.71 µM; TGI (RPMI-8226 leukemia): 20.3 µM; GI50 (PC-3 prostate): 14.6 µM; TGI (PC-3 prostate): 28.4 µM; GI50 (TK-10 renal): 14.2 µM; TGI (TK-10 renal): 32.3 µM; GI50 (MALME-3M melanoma): 12.2 µM; TGI (MALME-3M melanoma): 24.6 µM; GI50 (CCRF-CEM leukemia): 13.8 µM; TGI (CCRF-CEM leukemia): 26.8 µM; GI50 (SK-MEL-5 melanoma): 16.7 µM; TGI (SK-MEL-5 melanoma): 30.4 µM; GI50 (A498 renal): 11.8 µM; TGI (A498 renal): 24.2 µM; GI50 (SF-539 CNS): 16.1 µM; TGI (SF-539 CNS): 29.8 µM; GI50 (U251 glioblastoma): 15.5 µM; TGI (U251 glioblastoma): 29 µM; GI50 (DU-145 prostate): 15.5 µM; TGI (DU-145 prostate): 29.3 µM; GI50 (EKVX NSCLC): 13.8 µM; TGI (EKVX NSCLC): 27.1 µM; GI50 (IGROV1 ovarian): 12 µM; TGI (IGROV1 ovarian): 25.7 µM; GI50 (OVCAR-8 ovarian): 14.2 µM; TGI (OVCAR-8 ovarian): 27.4 µM; GI50 (SNB-19 CNS): 18.7 µM; TGI (SNB-19 CNS): 33.9 µM; GI50 (COLO 205 colon): 18.4 µM; TGI (COLO 205 colon): 32.6 µM; GI50 (HS 578T breast): 13.4 µM; TGI (HS 578T breast): 26.3 µM; GI50 (KM12 colon): 13.1 µM; TGI (KM12 colon): 26 µM; GI50 (MCF7 breast): 14.7 µM; TGI (MCF7 breast): 28.2 µM; GI50 (SK-MEL-2 melanoma): 14.5 µM; TGI (SK-MEL-2 melanoma): 27.7 µM; GI50 (M14 melanoma): 17 µM; TGI (M14 melanoma): 30.8 µM; GI50 (RXF 393 renal): 12.3 µM; TGI (RXF 393 renal): 24.8 µM; GI50 (SR leukemia): 1880 nM; TGI (SR leukemia): 5.32 µM; GI50 (HOP-62 NSCLC): 14.4 µM; TGI (HOP-62 NSCLC): 27.7 µM; GI50 (SNB-75 CNS): 12.6 µM; TGI (SNB-75 CNS): 25.2 µM
